{"source": "patent US4691046A", "about": "“Butanedioic acid mono [(2-dimethylamino] ethyl ester)succinate” (Institut Organicheskoi Khimii Ordena Lenina I Ordena …, priority 1986, dated 1987)", "key": {"[1]": {"assay": "Survival of mice on acute cooling", "type": "in vivo", "conditions": "i.p. 1 hour before, 80 mg/kg (invention), 64 mg/kg (ester), 17 mg/kg (sodium succinate)", "description": "The activity of the compound according to the present invention was studied in experiments on animals. The effectivemess of the compound according to the present invention was studied for resistance against an acute cold effect in comparison with conventional preparations such as butanedioic acid mono[(2-dimethylamino)ethyl ester] and sodium succinate.\nThe experiments were carried out on male mice (tetrahybdrids) with a body mass of 18-20 g which were placed into a cold chamber at a temperature of -15t to -17° C. in separate plastic cages slightly limiting their activity. […] The preparations were administered intraperiotoneally 1 hour before the cold effect the control animals were administered with a physiological solution."}, "[2]": {"test_system": "Succinatedehydrogenase", "assay": "Activity of succinatedehydrogenase in myocardium upon low-temperature treatment", "type": "in vivo, mice", "conditions": "2.5 hours at -14° C.; 80 mg/kg (invention) or 64 mg/kg (ester); control 72.3 ± 1.6", "experimental": "(§2) The preparations were administered one hour before the standard low-temperature treatment (-14° C.) in doses of 80 mg/kg of the compound according to the present invention and 64 mg/kg of the prior art compound-butanedioic acid mono[(2-dimethylamino)-ethyl ester]."}, "[3]": {"test_system": "Isocitratedehydrogenase", "assay": "Activity of isocitratedehydrogenase in myocardium upon low-temperature treatment", "type": "in vivo, mice", "conditions": "2.5 hours at -14° C.; 80 mg/kg (invention) or 64 mg/kg (ester); control 49.5 ± 1.2", "experimental": "as §2"}, "[4]": {"test_system": "Glutamatedehydrogenase", "assay": "Activity of glutamatedehydrogenase in myocardium upon low-temperature treatment", "type": "in vivo, mice", "conditions": "2.5 hours at -14° C.; 80 mg/kg (invention) or 64 mg/kg (ester); control 68.8 ± 1.5", "experimental": "as §2"}, "[5]": {"test_system": "Pyruvatedehydrogenase", "assay": "Activity of pyruvatedehydrogenase in myocardium upon low-temperature treatment", "type": "in vivo, mice", "conditions": "2.5 hours at -14° C.; 80 mg/kg (invention) or 64 mg/kg (ester); control 56.6 ± 1.1", "experimental": "as §2"}, "[6]": {"test_system": "NADH2 --dehydrogenase", "assay": "Activity of NADH2-dehydrogenase in myocardium upon low-temperature treatment", "type": "in vivo, mice", "conditions": "2.5 hours at -14° C.; 80 mg/kg (invention) or 64 mg/kg (ester); control 69.8 ± 1.5", "experimental": "as §2"}, "[7]": {"test_system": "NAD-Ph--H2 --dehydrogenase", "assay": "Activity of NAD-Ph-H2-dehydrogenase in myocardium upon low-temperature treatment", "type": "in vivo, mice", "conditions": "2.5 hours at -14° C.; 80 mg/kg (invention) or 64 mg/kg (ester); control 72.1 ± 1.4", "experimental": "as §2"}, "[8]": {"test_system": "Glucose-6-phosphatedehydrogenase", "assay": "Activity of glucose-6-phosphatedehydrogenase in myocardium upon low-temperature treatment", "type": "in vivo, mice", "conditions": "2.5 hours at -14° C.; 80 mg/kg (invention) or 64 mg/kg (ester); control 57.3 ± 1.3", "experimental": "as §2"}, "[9]": {"assay": "Maximum duration of mice lifespan upon testing cold treatment (Le Blanc adaptation procedure)", "type": "in vivo", "conditions": "with preliminary adaptation; 80 mg/kg (invention) or 64 mg/kg (ester); adaptation alone 6.0 ± 0.3", "description": "(§1) To elucidate the effect of the compound according to the present invention on the adaptation phenomenon, experiments on male mice with a body mass of 18-20 g were carried out in conformity with the Le Blanc procedure according to which the mice were placed into a cold chamber (at -17° C.) for 10 minutes ever hour over the period of 9-10 hours. After one day the maximum lifespan of the mice at -17° C. was assessed along with the content of glucose in blood and of glycogen in organs upon a predetermined cold treatment (2.5 hours a -14° C.). The compound according to the present invention and butanedioic acid mono[(2-dimethylamino)-ethyl ester] (in doses of 80 and 64 mg/kg respectively) were introduced immediately after a series of short-time cold effects. In a number of experiments the compound according to the present invention was administered 1 hour prior to the testing (2.5 h) cold effect."}, "[10]": {"assay": "Blood glucose and organ glycogen upon predetermined (2.5 h) cold treatment (adaptation experiment)", "type": "in vivo, mice", "conditions": "adaptation + preparation immediately after adaptation, 80 mg/kg (invention) or 64 mg/kg (ester), 2.5 h at -14° C.", "description": "as §1"}, "[11]": {"assay": "Stresso-protective activity, motion stress in slowly rotating drum for 48 hours", "type": "in vivo, rats", "conditions": "48 h motion stress", "description": "In evaluation of the stresso-protective activity of the compound according to the present invention as a model use was made of a procedure of depriving rats of sleep, meals and water in a slowly rotating drum (at the speed of 0.2 km/h).\nThe experiments were carried out on 42 nondescript male rats. In parallel experiments the antistress activity of butanedioic acid mono[(2-dimethylamino)ethyl ester] was studied; as the reference prepartion use was made of the prior art tranquilizer--diazepam which was used in the experiments for this very indication.\n4 groups of animals were tested in parallel. Groups I and II were placed for 48 hours into a slowly rotating drum, groups III and IV were under normal conditions and were deprived only of meals and water. The compound according to the present invention and butanedioic acid mono[(2-dimethylamino)ethyl ester] were administered intraperitoneally in the dose of 10 mg/kg four times (2 times a day) in the volume of 2.5 ml/kg under the conditions of motion stress (Group I of the animals) and under normal conditions (Group III of animals). The control animals--Group II (active control) and Group IV (passive control) were given a physiological solution. The efficiency of the compound according to the present invention, of butanedioic acid mono[(2-dimethylamino)ethyl ester] and of diazepam was estimated on the basis of a set of characteristics showing the functional activity of the central nervous system, physical fitness and development of basic symptoms of the stress-syndrome.\nThe residence of control rats in a slowly-rotating drum over 48 hours results in a noticeable deterioration of all the studied characteristics, especially those of higher nervous activity (learning) and development of stress-syndrome. The state of control animals was characterized by lowering of the overall behavioural activity as determined by the \"open-field\" test (37±15%) with reference to the passive control level, by a reduction in the speed of development of a conventional avoiding response in an aqueous labyrinth (58±15%), by an increase in the number of mistakes during the teaching time (175±25%), lowering of the ultimate physical endurance as determined by the swimming-with-load test (the load is equal to 10% by mass of the body (70±17%), adrenal hypertrophy (146±16%), thymus atrophy (49±9%) and formation of ulcers on the stomach mucous membrane (5.25±1.0%)."}, "[12]": {"assay": "Biochemical substrates in mice upon preset (2.5 hours) low-temperature treatment", "conditions": "2.5 hours at -14° C., 1 hour after 80 mg/kg (invention) or 64 mg/kg (ester)", "experimental": "as §2"}}, "data": [{"smiles": "CN(C)CCOC(=O)CCC(=O)O", "note": "[Butanedioic acid mono[(2-dimethylamino)ethyl ester]] [reference compound]", "values": [{"measurement": "Survival, %, 1 hour", "setting": "[1]; 1 hour of cold at -15 to -17° C.", "result": 100, "unit": "%"}, {"measurement": "Survival, %, 2 hours", "setting": "[1]; 2 hours of cold at -15 to -17° C.", "result": 90, "unit": "%"}, {"measurement": "Survival, %, 3 hours", "setting": "[1]; 3 hours of cold at -15 to -17° C.", "result": 70, "unit": "%"}, {"measurement": "Survival, %, 4 hours", "setting": "[1]; 4 hours of cold at -15 to -17° C.", "result": 50, "unit": "%"}, {"measurement": "Survival, %, 5 hours", "setting": "[1]; 5 hours of cold at -15 to -17° C.", "result": 20, "unit": "%"}, {"measurement": "Survival, %, 6 hours", "setting": "[1]; 6 hours of cold at -15 to -17° C.", "result": 10, "unit": "%"}, {"measurement": "Activity of succinatedehydrogenase in myocardium", "setting": "[2]", "result": "75.6 ± 2.4", "unit": "relative units"}, {"measurement": "Activity of isocitratedehydrogenase in myocardium", "setting": "[3]", "result": "58.2 ± 1.4", "unit": "relative units"}, {"measurement": "Activity of glutamatedehydrogenase in myocardium", "setting": "[4]", "result": "72.4 ± 0.6", "unit": "relative units"}, {"measurement": "Activity of pyruvatedehydrogenase in myocardium", "setting": "[5]", "result": "62.6 ± 3.5", "unit": "relative units"}, {"measurement": "Activity of NADH2-dehydrogenase in myocardium", "setting": "[6]", "result": "70.8 ± 2.7", "unit": "relative units"}, {"measurement": "Activity of NAD-Ph-H2-dehydrogenase in myocardium", "setting": "[7]", "result": "76.4 ± 2.7", "unit": "relative units"}, {"measurement": "Activity of glucose-6-phosphatedehydrogenase in myocardium", "setting": "[8]", "result": "60.2 ± 1.4", "unit": "relative units"}, {"measurement": "Lifespan in hours (at -17° C.), preliminary adaptation + preparation", "setting": "[9]", "result": "6.2 ± 0.4", "unit": "h"}, {"measurement": "Glycogen, heart", "setting": "[10]; control 1.7 ± 0.2", "result": "2.4 ± 0.2", "unit": "mg/g"}, {"measurement": "Glycogen, liver", "setting": "[10]; control 6.7 ± 0.4", "result": "10.2 ± 2.7", "unit": "mg/g"}, {"measurement": "Blood glucose", "setting": "[10]; control 37 ± 6", "result": "75 ± 4", "unit": "mg. %"}, {"measurement": "stresso-protective activity compared with the compound of the invention", "setting": "[11]; in words", "result": "far less pronounced"}, {"measurement": "Weight coefficient of thymus", "setting": "[11]; 10 mg/kg i.p. four times (invention, ester), control 0.95 ± 0.18, 10 mg/kg", "result": "1.08 g/kg of the initial body mass"}, {"measurement": "Weight coefficient of adrenal glands", "setting": "[11]; 10 mg/kg i.p. four times (invention, ester), control 1.246 ± 0.028, 10 mg/kg", "result": "1.42 g/kg of the initial body mass"}, {"measurement": "Number of attempts till reaching the learning criterion (water labyrinth)", "setting": "[11]; 10 mg/kg i.p. four times (invention, ester), control 4.75 ± 0.5, 10 mg/kg", "result": 4.10}, {"measurement": "Number of ulcers on the stomach mucous membrane", "setting": "[11]; 10 mg/kg i.p. four times (invention, ester), control 5.25 ± 1.0, 10 mg/kg", "result": 4.2}, {"measurement": "Duration of swimming", "setting": "[11]; 10 mg/kg i.p. four times (invention, ester), control 244 ± 26, 10 mg/kg", "result": 325, "unit": "s"}, {"measurement": "Liver glycogen", "setting": "[12]; control 8.1 ± 0.6, intact 35.2 ± 4.5", "result": "6.7 ± 0.8", "unit": "mg/kg"}, {"measurement": "Blood glucose", "setting": "[12]; control 42 ± 4, intact 79 ± 3", "result": "64 ± 2", "unit": "mg. %"}, {"measurement": "Creatine phosphate", "setting": "[12]; myocardium, control 1.2 ± 0.08, intact 3.7 ± 0.3", "result": "1.4 ± 0.04", "unit": "μm/g"}]}]}
